According to ChEMBL document CHEMBL1201862, “PubChem BioAssay data set” (2004):
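Following 48 hours of exposure in 96-well plates, responses at five concentrations were used to interpolate endpoints linearly. Abbreviation: GI50, concentration required for 50% inhibition of growth.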 Active and inactive are the calls of the source. No stated cut-off is given here; in the data, active = GI50 up to about 1.1 µM and inactive = higher.

Key:
Assay in all cases: DTP human tumour cell line panel, 48 h
[1] = tested on: OVCAR-3
[2] = tested on: HOP-18
[3] = tested on: SF-295
[4] = tested on: UACC-257
[5] = tested on: SNB-19
[6] = tested on: NCI-H23
[7] = tested on: OVCAR-4
[8] = tested on: SK-MEL-5
[9] = tested on: SF-268
[10] = tested on: A498
[11] = tested on: KM12
[12] = tested on: HCC 2998
[13] = tested on: HCT-116
[14] = tested on: COLO 205
[15] = tested on: RXF 393
[16] = tested on: ACHN
[17] = tested on: MOLT-4
[18] = tested on: SR
[19] = tested on: HL-60
[20] = tested on: UACC-62
[21] = tested on: NCI-H522
[22] = tested on: LOX IMVI
[23] = tested on: CCRF-CEM
[24] = tested on: CAKI-1
[25] = tested on: SF-539
[26] = tested on: NCI-H460
[27] = tested on: A549
[28] = tested on: SNB-75
[29] = tested on: RPMI-8226
[30] = tested on: SN12C
[31] = tested on: SK-MEL-2
[32] = tested on: HCT-15
[33] = tested on: UO-31
[34] = tested on: 786-0
[35] = tested on: SK-OV-3
[36] = tested on: TK-10
[37] = tested on: OVCAR-5
[38] = tested on: EKVX
[39] = tested on: RXF 631
[40] = tested on: KM-20L2
[41] = tested on: SW-620
[42] = tested on: HT-29
[43] = tested on: SK-MEL-28
[44] = tested on: U-251
[45] = tested on: M14
[46] = tested on: IGROV-1
[47] = tested on: HOP-92
[48] = tested on: HOP-62
[49] = tested on: OVCAR-8
[50] = tested on: M19-MEL
[51] = tested on: K562
[52] = tested on: DLD-1
[53] = tested on: DMS-114
[54] = tested on: Malme-3M
[55] = tested on: LXFL 529
[56] = tested on: DMS-273
[57] = tested on: SNB-78

`C1CSC(=[N+]2CC[N+](=C3SCCS3)CC2)S1` was tested, and the GI50 [1] was > 100 µM (inactive), the GI50 [2] was > 100 µM (inactive) and the GI50 [3] was > 100 µM (inactive). For the same compound, the GI50 [4] was > 100 µM (inactive), the GI50 [5] was > 100 µM (inactive) and the GI50 [6] was > 100 µM (inactive). For the same compound, the GI50 [7] was > 100 µM (inactive), the GI50 [8] was > 100 µM (inactive) and the GI50 [9] was > 100 µM (inactive). For the same compound, the GI50 [10] was > 100 µM (inactive), the GI50 [11] was > 100 µM (inactive) and the GI50 [12] was > 100 µM (inactive). The GI50 [13] was > 100 µM (inactive), the GI50 [14] was > 100 µM (inactive) and the GI50 [15] was > 100 µM (inactive). For the same compound, the GI50 [16] was > 100 µM (inactive), the GI50 [17] was 44.9 µM (inactive) and the GI50 [18] was 83.8 µM (inactive). The GI50 [19] was > 100 µM (inactive), the GI50 [20] was > 100 µM (inactive) and the GI50 [21] was > 100 µM (inactive). For the same compound, the GI50 [22] was 39.2 µM (inactive), the GI50 [23] was 36.6 µM (inactive) and the GI50 [24] was > 100 µM (inactive). The GI50 [25] was > 100 µM (inactive), the GI50 [26] was > 100 µM (inactive) and the GI50 [27] was > 100 µM (inactive). The GI50 [28] was > 100 µM (inactive), the GI50 [29] was > 100 µM (inactive) and the GI50 [30] was > 100 µM (inactive). The GI50 [31] was > 100 µM (inactive), the GI50 [32] was over 100 µM and the GI50 [33] was > 100 µM (inactive). The GI50 [34] was > 100 µM (inactive), the GI50 [35] was > 100 µM (inactive) and the GI50 [36] was > 100 µM (inactive). For the same compound, the GI50 [37] was > 100 µM (inactive), the GI50 [38] was > 100 µM (inactive) and the GI50 [39] was > 100 µM (inactive). For the same compound, the GI50 [40] was > 100 µM (inactive), the GI50 [41] was > 100 µM (inactive) and the GI50 [42] was > 100 µM (inactive). For the same compound, the GI50 [43] was > 100 µM (inactive), the GI50 [44] was > 100 µM (inactive) and the GI50 [45] was > 100 µM (inactive). For the same compound, the GI50 [46] was > 100 µM (inactive), the GI50 [47] was 45.4 µM (inactive) and the GI50 [48] was > 100 µM (inactive). For the same compound, the GI50 [49] was > 100 µM (inactive), the GI50 [50] was > 100 µM (inactive) and the GI50 [51] was > 100 µM (inactive). The GI50 [52] was > 100 µM (inactive), the GI50 [53] was > 100 µM (inactive) and the GI50 [54] was > 100 µM (inactive). For the same compound, the GI50 [55] was > 100 µM (inactive), the GI50 [56] was > 100 µM (inactive) and the GI50 [57] was > 100 µM (inactive).
